What was measured:
Type in all cases: cell-based
Settings in all cases: unsaturated fatty acid concentration of 200 µM, cells stimulated with known bitter agonist
T2R07 (TAS2R07) = molecular target: T1, T2R07 (TAS2R07) (Homo sapiens, UniProt Q9NYW3); experiment: FLIPR calcium assay, block of bitter agonist response, T2R07
T1 construct: expressed in transfected cells; host or cells: cells expressing a promiscuous G protein (e.g., G16g44)
T1 sequence (Q9NYW3 1-318): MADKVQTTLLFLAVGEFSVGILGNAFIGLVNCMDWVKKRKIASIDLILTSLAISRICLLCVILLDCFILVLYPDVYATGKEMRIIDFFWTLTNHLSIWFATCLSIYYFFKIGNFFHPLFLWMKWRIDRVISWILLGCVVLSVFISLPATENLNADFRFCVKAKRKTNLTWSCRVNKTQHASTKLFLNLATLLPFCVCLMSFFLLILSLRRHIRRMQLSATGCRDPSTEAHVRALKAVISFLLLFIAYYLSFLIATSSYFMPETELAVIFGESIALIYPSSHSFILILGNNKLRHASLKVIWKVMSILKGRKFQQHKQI
Protocol: (§1) Cells expressing a promiscuous […] (e.g., G16g44) were transfected with vectors encoding 18 functional bitter receptor cDNAs, with one receptor per transfection. The cells were transfected directly in 384-well format high-density plates and incubated for 28 hours. Later, cells were loaded with the Ca-specific dye Fluo4-AM. After an incubation of 60 minutes, excess dye is washed off, and cells are stimulated with a known bitter agonist for each receptor and various unsaturated fatty acids. Changes in intracellular fluorescence are recorded using a FLIPR instrument. Bitter antagonists and corresponding receptors are identified based on percentage inhibition of agonist's activity on a given receptor.
(§2) The above protocol was carried out using 16 different unsaturated fatty acids. A particular T2R receptor was identified as being antagonized by a particular unsaturated fatty acid if it triggered a >25% block of agonist's cellular response at 200 μM concentration of unsaturated fatty acid. […] Table 2 indicates the sixteen (16) compounds tested by their compound number from Table 1 above. The 18 bitter taste receptors screened are the human bitter taste receptors we named. […]

T2R04 (TAS2R04) = molecular target: T2, T2R04 (TAS2R04) (Homo sapiens, UniProt Q9NYW5); experiment: FLIPR calcium assay, block of bitter agonist response, T2R04
T2 construct: expressed in transfected cells; host or cells: cells expressing a promiscuous G protein (e.g., G16g44)
T2 sequence (Q9NYW5 1-299): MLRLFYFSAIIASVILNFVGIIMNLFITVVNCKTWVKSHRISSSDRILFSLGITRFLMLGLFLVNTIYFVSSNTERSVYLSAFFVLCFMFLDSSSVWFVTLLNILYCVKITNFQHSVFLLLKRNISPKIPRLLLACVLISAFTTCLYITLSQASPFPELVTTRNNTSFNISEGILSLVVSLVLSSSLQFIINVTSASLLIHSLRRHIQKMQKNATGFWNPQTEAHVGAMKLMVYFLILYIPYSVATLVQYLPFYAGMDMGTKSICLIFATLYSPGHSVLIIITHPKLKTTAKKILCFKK
Protocol: as §1, §2

T2R61 (TAS2R43) = molecular target: T3, T2R61 (TAS2R43) (Homo sapiens, UniProt P59537); experiment: FLIPR calcium assay, block of bitter agonist response, T2R61
T3 construct: expressed in transfected cells; host or cells: cells expressing a promiscuous G protein (e.g., G16g44)
T3 sequence (P59537 1-309): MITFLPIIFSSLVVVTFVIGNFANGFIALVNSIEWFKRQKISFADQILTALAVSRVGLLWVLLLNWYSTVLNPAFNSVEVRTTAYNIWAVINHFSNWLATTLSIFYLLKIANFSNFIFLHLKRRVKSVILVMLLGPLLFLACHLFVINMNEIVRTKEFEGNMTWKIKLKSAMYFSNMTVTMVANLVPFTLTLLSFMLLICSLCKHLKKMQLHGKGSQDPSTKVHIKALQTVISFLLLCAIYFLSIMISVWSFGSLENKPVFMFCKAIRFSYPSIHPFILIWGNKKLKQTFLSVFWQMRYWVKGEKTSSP
Protocol: as §1, §2

T2R71 (TAS2R41) = molecular target: T4, T2R71 (TAS2R41) (Homo sapiens, UniProt P59536); experiment: FLIPR calcium assay, block of bitter agonist response, T2R71
T4 construct: expressed in transfected cells; host or cells: cells expressing a promiscuous G protein (e.g., G16g44)
T4 sequence (P59536 1-307): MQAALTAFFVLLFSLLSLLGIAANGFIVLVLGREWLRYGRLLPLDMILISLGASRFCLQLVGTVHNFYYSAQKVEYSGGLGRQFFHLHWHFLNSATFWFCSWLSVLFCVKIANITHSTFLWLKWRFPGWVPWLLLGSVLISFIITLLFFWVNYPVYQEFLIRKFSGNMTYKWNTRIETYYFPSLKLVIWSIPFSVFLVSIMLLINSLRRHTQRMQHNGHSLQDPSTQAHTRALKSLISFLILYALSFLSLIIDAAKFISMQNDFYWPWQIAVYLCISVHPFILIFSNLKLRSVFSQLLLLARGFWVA
Protocol: as §1, §2

T2R54 (TAS2R39) = molecular target: T5, T2R54 (TAS2R39 (Homo sapiens, UniProt P59534)); experiment: FLIPR calcium assay, block of bitter agonist response, T2R54
T5 construct: expressed in transfected cells; host or cells: cells expressing a promiscuous G protein (e.g., G16g44)
T5 sequence (P59534 1-338): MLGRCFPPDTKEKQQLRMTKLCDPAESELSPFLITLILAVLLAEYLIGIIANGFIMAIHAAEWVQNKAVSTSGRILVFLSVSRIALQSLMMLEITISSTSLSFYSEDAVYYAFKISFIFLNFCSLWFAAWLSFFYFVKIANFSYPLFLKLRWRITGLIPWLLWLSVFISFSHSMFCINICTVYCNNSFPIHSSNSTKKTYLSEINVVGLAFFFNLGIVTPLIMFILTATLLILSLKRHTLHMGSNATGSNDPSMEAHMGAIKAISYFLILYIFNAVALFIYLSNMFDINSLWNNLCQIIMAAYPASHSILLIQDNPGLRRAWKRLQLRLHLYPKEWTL
Protocol: as §1
The above protocol was carried out using 16 different unsaturated fatty acids. A particular T2R receptor was identified as being antagonized by a particular unsaturated fatty acid if it triggered a >25% block of agonist's cellular response at 200 μM concentration of unsaturated fatty acid. […] Table 2 indicates the sixteen (16) compounds tested by their compound number from Table 1 above. The 18 bitter taste receptors screened are the human bitter taste receptors we named. T2R01 (TAS2R01), T2R03 (TAS2R03), T2R04 (TAS2R04), T2R07 (TAS2R07), T2R08 (TAS2R08), T2R09 (TAS2R09), T2R10 (TAS2R10), T2R13 (TAS2R13), T2R14 (TAS2R14), T2R16 (TAS2R16), T2R54 (TAS2R39, T2R61 (TAS2R43), T2R63 (TA2R20), T2R64 (TAS2R31), T2R65 (TAS2R19), T2R67 (TAS2R50), T2R71 (TAS2R41), and T2R75 (TAS2R46). The corresponding IUPHAR nomenclature for each receptor is given in parenthesis. In Table 2, these receptors are identified by the last two digits. For example, T2R01 is indicated as 01. Table 2 reports the percentage block of cellular response over baseline at an unsaturated fatty acid concentration of 200 µM.

What does the source list for CC(C)=CCC/C(C)=C/C(=O)O [Compound 129]?
percentage block of cellular response over baseline, 07 (T2R07 (TAS2R07)): >90%; percentage block of cellular response over baseline, 04 (T2R04 (TAS2R04)): >90%; percentage block of cellular response over baseline, 61 (T2R61 (TAS2R43)): >90%; percentage block of cellular response over baseline, 71 (T2R71 (TAS2R41)): 30%; percentage block of cellular response over baseline, 54 (T2R54 (TAS2R39)): 90%

From patent US20250344734A1, “UNSATURATED FATTY ACIDS AND THEIR USE TO MODIFY TASTE” (Firmenich Incorporated, priority 2022, published 2025)
